In US20040127403A1, “Methods for treating and preventing Gram-positive bacteremias” (priority 2002, published 2004):
“And” between values parts separate entries of the source, which are not always exact repeats. Equal values may be shown once.

What was measured:
Assay in all cases: MIC, NCCLS broth microdilution
Assay type in all cases: cell-based
[1] = tested on: E. faecalis A7789 Line-R; conditions: Table 6, 1st
Experimental: (§1) The efficacy of ramoplanin was tested against recently isolated VRE that are resistant to linezolid and quinupristin/dalfopristin. The culture media containing ramoplanin was supplemented with 0.02% bovine serum albumin (BSA) to prevent ramoplanin binding to the plastic. MIC values were determined in both cation-adjusted Mueller-Hinton broth (CAMHB) and trypticase soy broth (TSB) by the National Committee for Clinical Laboratory Standards (NCCLS) broth microdilution method. Macromolecular biosynthesis experiments were done by following the incorporation of carbon-14-labeled N-acetylglucosamine, acetic acid, amino acids, uridine, and thymidine into peptidoglycan, fatty acid, protein, RNA and DNA, respectively.

[2] = tested on: E. faecalis ATCC29212; conditions: E. faecalis ATCC29212
Experimental: as §1

[3] = tested on: E. faecalis ATCC51299; conditions: E. faecalis ATCC51299
Experimental: as §1

[4] = tested on: E. faecium A-5960 Line-R; conditions: Table 6, 2nd
Experimental: as §1

[5] = tested on: E. faecium A2735 Syn-R
Experimental: as §1

[6] = tested on: E. faecium A4192 Syn-R
Experimental: as §1

[7] = tested on: E. faecium A5959 Line-R; conditions: Table 6, 2nd
Experimental: as §1

[8] = tested on: E. faecium A6343 Line-R
Experimental: as §1

[9] = tested on: E. faecium A6345 Line-R; conditions: for MIC: E. faecium A6345 Line-R
Experimental: as §1

[10] = tested on: E. faecium A6349 Line-R
Experimental: as §1

[11] = tested on: E. faecium A6350 Line-R
Experimental: as §1

[12] = tested on: E. faecium ATCC700221; conditions: E. faecium ATCC700221
Experimental: as §1

[13] = tested on: E. faecium UA210; conditions: E. faecium UA210
Experimental: as §1

[14] = tested on: E. faecium UA392; conditions: E. faecium UA392
Experimental: as §1

[15] = tested on: E. gallinarum UA604
Experimental: as §1

[16] = tested on: S. aureus ATCC12600 MRSA
Experimental: as §1

[17] = tested on: S. aureus ATCC27659 MSSA
Experimental: as §1

[18] = tested on: S. aureus ATCC27660 MSSA
Experimental: as §1

[19] = tested on: S. aureus ATCC35556 MRSA
Experimental: as §1

[20] = tested on: S. aureus ATCC43300 MRSA
Experimental: as §1

[21] = tested on: S. epidermidis ATCC12228; conditions: S. epidermidis ATCC12228
Experimental: as §1

[22] = tested on: S. epidermidis ATCC14990; conditions: S. epidermidis ATCC14990
Experimental: as §1

[23] = tested on: S. epidermidis ATCC35983; conditions: S. epidermidis ATCC35983
Experimental: as §1

Ramoplanin
0.5 µg/mL: MIC ([3]; Table 6, 2nd) | MIC ([6]; Table 6, 2nd) | MIC ([16]; Table 6, 2nd) | MIC ([19]; Table 6, 2nd) | MIC ([22]; Table 6, 1st) | MIC ([23]; Table 6, 2nd)
0.125 µg/mL: MIC ([8]; Table 6, 1st) | MIC ([9]; Table 6, 1st) | MIC ([10]; Table 6, 1st) | MIC ([13]; Table 6, 2nd) | MIC ([14]; Table 6, 1st) | MIC ([15]; Table 6, 2nd)
0.125, 0.125 μg/ml: MIC ([9]; CAMHB) | MIC ([13]; CAMHB) | MIC ([13]; TSB) | MIC ([15]; CAMHB) | MIC ([19]; TSB)
1, 1 μg/ml: MIC ([20]; S. aureus ATCC43300 MRSA, CAMHB) | MIC ([21]; TSB)
0.5 µg/mL and 1 µg/mL: MIC ([18]; CAMHB)
0.5, 0.5 μg/ml: MIC ([2]; CAMHB) | MIC ([2]; TSB) | MIC ([3]; CAMHB) | MIC ([3]; TSB) | MIC ([5]; TSB) | MIC ([6]; TSB) | MIC ([11]; TSB) | MIC ([12]; TSB) | MIC ([16]; CAMHB) | MIC ([16]; TSB) | MIC ([19]; CAMHB) | MIC ([20]; S. aureus ATCC43300 MRSA, TSB) | MIC ([21]; CAMHB) | MIC ([22]; CAMHB) | MIC ([22]; TSB) | MIC ([23]; CAMHB)
2 µg/mL: MIC ([18]; Table 6, 1st) | MIC ([20]; S. aureus ATCC43300 MRSA/VISA, Table 6, 1st)
1 µg/mL: MIC ([16]; Table 6, 1st) | MIC ([17]; Table 6, 1st) | MIC ([18]; Table 6, 2nd) | MIC ([19]; Table 6, 1st) | MIC ([21]; Table 6, 1st)
0.25 µg/mL: MIC ([2]; Table 6, 1st) | MIC ([3]; Table 6, 1st) | MIC [4] | MIC ([5]; Table 6, 1st) | MIC ([5]; Table 6, 2nd) | MIC ([6]; Table 6, 1st) | MIC [7] | MIC ([8]; Table 6, 2nd) | reference MIC for strains used for killing curve ([9]; E. faecium A6345 Line-R. as printed, second row of Table 3) | reference MIC for strains used for killing curve ([9]; E. faecium A6345 Line-R., first row of Table 3) | MIC ([9]; Table 6, 2nd) | MIC ([10]; Table 6, 2nd) | MIC ([11]; Table 6, 1st) | MIC ([11]; Table 6, 2nd) | MIC ([12]; Table 6, 1st) | MIC ([12]; Table 6, 2nd) | MIC ([14]; Table 6, 2nd) | MIC ([17]; Table 6, 2nd) | MIC ([20]; S. aureus ATCC43300 MRSA/VISA, Table 6, 2nd) | MIC ([21]; Table 6, 2nd) | MIC ([22]; Table 6, 2nd)
0.25, 0.25 μg/ml: MIC ([5]; CAMHB) | MIC ([6]; CAMHB) | MIC ([8]; CAMHB) | MIC ([8]; TSB) | MIC ([9]; TSB) | MIC ([11]; CAMHB) | MIC ([12]; CAMHB) | MIC ([14]; CAMHB) | MIC ([14]; TSB) | MIC ([15]; TSB) | MIC ([17]; CAMHB) | MIC ([17]; TSB) | MIC ([18]; TSB)
0.5 µg/mL and 0.25 µg/mL: MIC ([2]; Table 6, 2nd)
0.06 µg/mL: MIC [1] | MIC ([13]; Table 6, 1st) | MIC ([15]; Table 6, 1st)
2 µg/mL and 1 µg/mL: MIC ([23]; TSB)
